From ChEMBL document CHEMBL5316354, “From Natural Sources to Synthetic Derivatives: The Allyl Motif as a Powerful Tool for Fragment-Based Design in Cancer Treatment” (J Med Chem, 2023)

How the values were obtained:
[1] = tested on: Rattus norvegicus; experiment: Immunomodulatory activity in testosterone propionate induced benign prostatic hyperplasia Wistar rat model assessed as reduction in DHT level at 50 mg/kg, po relative to control; assay type: functional
[2] = tested on: Rattus norvegicus; experiment: Immunomodulatory activity in testosterone propionate induced benign prostatic hyperplasia Wistar rat model assessed as reduction in serum testosterone level at 50 mg/kg, po relative to control; assay type: functional
[3] = tested on: Rattus norvegicus; experiment: Immunomodulatory activity in testosterone propionate induced benign prostatic hyperplasia Wistar rat model assessed as reduction in prostate weight at 50 mg/kg, po relative to control; assay type: functional
[4] = tested on: PC-3; experiment: Antitumor activity against human PC-3 cells assessed as cell growth inhibition; assay type: functional, cell-based
[5] = tested on: SGC-7901; experiment: Antitumor activity against human SGC-7901 cells assessed as cell growth inhibition; assay type: functional, cell-based
[6] = tested on: BGC-823; experiment: Antitumor activity against human BGC-823 cells assessed as cell growth inhibition; assay type: functional, cell-based
[7] = tested on: MCF7; experiment: Antitumor activity against human MCF7 cells assessed as inhibition of cell proliferation in the presence of 1mM of eugenol; assay type: functional, cell-based
[8] = tested on: MCF7; experiment: Antitumor activity against human MCF7 cells assessed as inhibition of cell proliferation; assay type: functional, cell-based
[9] = tested on: MDA-MB-231; experiment: Antitumor activity against human MDA-MB-231 cells assessed as cell viability at 0.5 uM relative to control; assay type: functional; conditions: read-out: Activity
[10] = tested on: SK-BR-3; experiment: Antitumor activity against human SK-BR-3 cells assessed as cell growth inhibition; assay type: functional, cell-based
[11] = tested on: MCF7; experiment: Antitumor activity against human MCF7 cells assessed as cell growth inhibition; assay type: functional, cell-based
[12] = tested on: BGC-823; experiment: Antitumor activity against human BGC-823 cells xenografted in BALB/c nude mouse assessed as tumor growth inhibition at 20 mg/kg, ip administered for 32 days relative to control; assay type: functional; conditions: BGC-823, 768 h, time 32 day
[13] = tested on: BGC-823; experiment: Antitumor activity against human BGC-823 cells xenografted in BALB/c nude mouse assessed as tumor growth inhibition at 30 mg/kg, ip administered for 32 days relative to control; assay type: functional; conditions: BGC-823, 768 h, time 32 day
[14] = tested on: BGC-823; experiment: Antitumor activity against human BGC-823 cells xenografted in BALB/c nude mouse assessed as tumor growth inhibition at 40 mg/kg, ip administered for 32 days relative to control; assay type: functional; conditions: BGC-823, 768 h, time 32 day
[15] = tested on: DU-145; experiment: Antitumor activity against human DU-145 cells assessed as cell growth inhibition; assay type: functional, cell-based
[16] = tested on: SW480; experiment: Antitumor activity against human SW480 cells assessed as inhibition of cell growth incubated for 24 to 48 hrs; assay type: functional, cell-based
[17] = tested on: MCF7; experiment: Antitumor activity against human MCF7 cells assessed as cell growth inhibition incubated for 48 hrs; assay type: functional, cell-based; conditions: MCF7, 48 h
[18] = tested on: HeLa; experiment: Antitumor activity against human HeLa cells assessed as cell growth inhibition; assay type: functional, cell-based
[19] = tested on: NCI-H23; experiment: Antitumor activity against human NCI-H23 cells assessed as cell growth inhibition; assay type: functional, cell-based
[20] = tested on: SW-620; experiment: Antitumor activity against human SW620 cells assessed as cell growth inhibition; assay type: functional, cell-based
[21] = Antitumor activity against human Osteosarcoma cells assessed as increase in intracellular calcium concentration; assay type: functional, cell-based; conditions: Osteosarcoma cell
[22] = Antitumor activity against human OC2 cells assessed as increase in cell proliferation at 10 uM relative to control; assay type: functional
[23] = tested on: Rattus norvegicus; experiment: Immunomodulatory activity in testosterone propionate induced benign prostatic hyperplasia Wistar rat model assessed as reduction in serum testosterone level at 5 mg/kg, po relative to control; assay type: functional
[24] = tested on: Rattus norvegicus; experiment: Immunomodulatory activity in testosterone propionate induced benign prostatic hyperplasia Wistar rat model assessed as reduction in DHT level at 5 mg/kg, po relative to control; assay type: functional
[25] = tested on: Rattus norvegicus; experiment: Immunomodulatory activity in testosterone propionate induced benign prostatic hyperplasia Wistar rat model assessed as reduction in prostate weight at 5 mg/kg, po relative to control; assay type: functional
[26] = tested on: MCF7; experiment: Antitumor activity against human MCF7 expressing HER-2 cells assessed as cell growth inhibition; assay type: functional, cell-based
[27] = tested on: MG-63; experiment: Antiproliferative activity against human MG-63 cells assessed as growth inhibition by MTT assay; assay type: functional
[28] = tested on: Ca9-22; experiment: Antitumor activity against human Ca9-22 cells assessed as cellular proliferation at 3 uM; assay type: functional
[29] = tested on: MDA-MB-231; experiment: Antitumor activity against human MDA-MB-231 cells assessed as cell viability at 50 uM relative to control; assay type: functional; conditions: read-out: Activity
[30] = tested on: Ca9-22; experiment: Antitumor activity against human Ca9-22 cells assessed as cellular proliferation at 30 uM; assay type: functional
[31] = tested on: NCI-H226; experiment: Antitumor activity against human NCI-H226 cells assessed as cell growth inhibition; assay type: functional, cell-based
[32] = tested on: HL-60; experiment: Antitumor activity against human HL-60 cells assessed as cell growth inhibition; assay type: functional, cell-based
[33] = tested on: MCF7; experiment: Antitumor activity against human MCF7 cells assessed as decrease in cell viability; assay type: functional, cell-based
[34] = tested on: SK-BR-3; experiment: Antitumor activity against human SK-BR-3 cells assessed as inhibition of cell proliferation at 40 uM relative to control; assay type: functional
[35] = tested on: MDA-MB-231; experiment: Antitumor activity against human MDA-MB-231 cells assessed as inhibition of cell proliferation at 60 uM relative to control; assay type: functional
[36] = tested on: MDA-MB-231; experiment: Antitumor activity against human MDA-MB-231 cells assessed as inhibition of cell proliferation at 40 uM relative to control; assay type: functional
[37] = tested on: SK-BR-3; experiment: Antitumor activity against human SK-BR-3 cells assessed as inhibition of cell proliferation at 60 uM relative to control; assay type: functional
[38] = tested on: HepG2; experiment: Antitumor activity against human HepG2 cells assessed as reduction in cell growth; assay type: functional, cell-based
[39] = tested on: HepG2; experiment: Cytotoxicity against human HepG2 cells; assay type: functional

C=CCSCC=C [DIALLYL SULFIDE]
inhibition in vivo at 50 mg/kg [1]: 75% | inhibition in vivo at 50 mg/kg [2]: 68% | inhibition in vivo at 50 mg/kg [3]: 60%

C=CCOc1cccc2c1C(=O)C=C(C)C2=O
IC50 [4]: 32.2 µM

COc1cccc2c1C(=O)c1c(O)c3c(c(O)c1C2=O)C[C@@](O)(C(=O)CO)C[C@@H]3O[C@H]1C[C@H](N)[C@H](O)[C@H](C)O1 [DOXORUBICIN]
IC50 [5]: 36.9 µM | IC50 [6]: 38.2 µM | IC50 [7]: 0.088 µM | IC50 [8]: 0.5 µM | viability at 0.5 µM [9]: 40%

C=CCc1cc(/C=C2\CN(Cc3ccccc3)C/C(=C\c3ccc(O)c(CC=C)c3)C2=O)ccc1O
IC50 [5]: 6 µM | IC50 [6]: 6.9 µM

C=CCNC1=C2C[C@@H](C)C[C@H](OC)[C@H](O)[C@@H](C)/C=C(\C)[C@H](OC(N)=O)[C@@H](OC)/C=C\C=C(/C)C(=O)NC(=CC1=O)C2=O [TANESPIMYCIN]
IC50 [10]: 0.004 µM | IC50 [11]: 0.005 µM

C=CCSSSCC=C [ALLITRIDIN]
inhibition in vivo at 20 mg/kg [12]: 38% | inhibition in vivo at 30 mg/kg [13]: 50% | inhibition in vivo at 40 mg/kg [14]: 57%

Cn1[se]c2ccccc2c1=O
IC50 [15]: 30.2 µM | IC50 [11]: 32.7 µM

C=CCSC[C@H](NC(=O)c1ccccc1O)C(=O)OCC
IC50 [16]: 31 µM

C/C=C/c1ccc(O)c(OC)c1
IC50 [17]: 11.4 µM

CCC[C@@H](Cc1c[nH]c2ccccc12)NS(=O)(=O)c1c(C(C)C)cc(C(C)C)cc1C(C)C
IC50 [18]: 30.8 µM

C=CCc1cccc(/C=N/NC(=O)Cn2cnc3ccc([N+](=O)[O-])cc3c2=O)c1O
IC50 [4]: 0.07 µM | IC50 [19]: 0.03 µM | IC50 [20]: 0.07 µM

C=CCc1ccc2c(c1)OCO2 [SAFROLE]
EC50 [21]: 450 µM | Activity [22]: 50%

CCCCn1[se]c2ccccc2c1=O
IC50 [15]: 28 µM | IC50 [11]: 13.8 µM

CC(C)(C)NC(=O)[C@H]1CC[C@H]2[C@@H]3CC[C@H]4NC(=O)C=C[C@]4(C)[C@H]3CC[C@]12C [FINASTERIDE]
inhibition in vivo at 5 mg/kg [23]: 55% | inhibition in vivo at 5 mg/kg [24]: 52% | inhibition in vivo at 5 mg/kg [25]: 53%

C=CCSC[C@H](NC(=O)C(C)c1ccc2cc(OC)ccc2c1)C(=O)OCC (stereo partly drawn)
IC50 [16]: 31 µM

C=CCc1cc(/C=C2\CC/C(=C\c3ccc(O)c(CC=C)c3)C2=O)ccc1O
IC50 [5]: 6.9 µM | IC50 [6]: 7.1 µM

C=CCNC(=S)NC(=O)c1ccccc1
IC50 [26]: 0.6 µM | IC50 [11]: 1.5 µM

CC(C)CCn1[se]c2ccccc2c1=O
IC50 [11]: 29 µM

C/C=C/c1ccc(OC)cc1 [ANETHOLE]
GI50 [27]: 60.2 µM | Activity [28]: 42.7% | viability at 50 µM [29]: 60% | Activity [30]: 5.2%

C=CCc1cccc(/C=N/NC(=O)CN2CCN(Cc3ccccc3)CC2)c1O [PAC-1]
IC50 [31]: 0.35 µM | IC50 [32]: 0.92 µM | IC50 [11]: > 75 µM

C=CCSCC(N)C(=O)OOc1ccc(CNC(=O)CCCCCCCC)cc1OC (stereo not drawn)
IC50 [33]: 66 µM

C=CCc1ccc(O)c(OC)c1 [EUGENOL]
IC50 [17]: > 1500 µM | inhibition at 40 µM [34]: > 90% | inhibition at 60 µM [35]: > 90% | inhibition at 40 µM [36]: > 90% | inhibition at 60 µM [37]: > 90%

COC1=C2C[C@@H](C)C[C@H](OC)[C@H](O)[C@@H](C)/C=C(\C)[C@H](OC(N)=O)[C@@H](OC)/C=C\C=C(/C)C(=O)NC(=CC1=O)C2=O [GELDANAMYCIN]
IC50 [10]: 0.004 µM | IC50 [11]: 0.011 µM

O=c1c2ccccc2[se]n1C1CCCCC1
IC50 [15]: 5.7 µM | IC50 [11]: 7.3 µM

C=CCSC[C@H](NC(=O)Cc1ccccc1Nc1c(Cl)cccc1Cl)C(=O)OCC
IC50 [16]: 31 µM

CCCCCCCCC(=O)NCc1ccc(O)c(OC)c1 [NONIVAMIDE]
IC50 [33]: 2240 µM

C=C1[C@H](CO)[C@@H](O)C[C@@H]1n1cnc2c(=O)[nH]c(N)nc21 [ENTECAVIR ANHYDROUS]
EC50 [38]: 0.00375 µM | CC50 [39]: 30 µM
